15 compounds from patent US5610271A, “Kappa receptor selective opioid peptides” (Torrey Pines Institute for Molecular Studies, priority 1995, dated 1997) can be followed below.

Square brackets hold non-standard residues; d marks the D form. Peptide text beside a SMILES is read from it. dCha = N[C@H](CC1CCCCC1)C(=O)O; dNle = CCCC[C@@H](N)C(=O)O

For the assay, the target named is T1, κ receptor (Cavia porcellus, UniProt P41144).
T1 construct: tissue homogenates prepared from guinea pig brains (cortex and cerebellum); tissue Harlan Bioproducts for Science (Indianapolis, Ind.); host or cells: guinea pig brain, cortex and cerebellum, crude membrane homogenate
T1 sequence (P41144 whole entry): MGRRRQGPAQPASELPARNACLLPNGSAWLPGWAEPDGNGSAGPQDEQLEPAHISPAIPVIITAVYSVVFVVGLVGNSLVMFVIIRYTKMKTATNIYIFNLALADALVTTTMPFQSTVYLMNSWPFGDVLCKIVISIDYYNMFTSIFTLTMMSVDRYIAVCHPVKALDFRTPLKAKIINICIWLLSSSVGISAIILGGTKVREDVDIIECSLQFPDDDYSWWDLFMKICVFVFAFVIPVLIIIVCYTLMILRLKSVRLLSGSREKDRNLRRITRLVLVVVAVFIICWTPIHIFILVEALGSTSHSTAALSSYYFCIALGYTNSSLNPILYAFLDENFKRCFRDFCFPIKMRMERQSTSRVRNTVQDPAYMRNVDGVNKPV
In words: Radioreceptor assay selective for the kappa receptor (inhibition of [3H]-U69,593 binding). More on the design: species or system guinea pig. Here is the method: Guinea pig brains, frozen in liquid nitrogen, were obtained from Harlan Bioproducts for Science (Indianapolis, Ind.). Frozen brains were thawed, the cerebella and cortex were removed and weighed. The combined cortex and cerebella were homogenized in 40 ml Tris-HCl buffer (50 mM, pH 7.4, 4° C.) containing 100 μM phenylmethylsulfonyl fluoride (PMSF) 5 mM MgCl2 and 1 mg/ml bovine serum albumin (BSA) and centrifuged (39000×g) (Model J2-HC; Beckman Instruments, Fullerton, Calif.) for 10 min at 4° C. The pellets were resuspended in fresh Tris-HCl buffer and incubated at 37° C. for 40 min. Following incubation, the suspensions were centrifuged as above, the resulting pellets resuspended in 100 volumes of Tris buffer and the suspensions combined. Membrane suspensions were prepared and used in the same day. Protein content of the crude homogenates ranged from 0.1-0.3 mg/ml as determined using the method described by Bradford in Anal. Biochem. 72:248-254 (1976), which is incorporated herein by reference.
Binding assays were carried out in polypropylene tubes. […] Assay tubes were incubated for 2.5 hr at 25° C. The reaction was terminated by filtration through GF-B filters (Wallac, Gaithesburg, Md.). The filters were subsequently washed with 6 ml Tris-HCl buffer at 4° C. Bound radioactivity was counted on a Beta-plate Liquid Scintillation Counter (Life Technologies, Gaithersburg, Md.) and expressed in counts per minute (cpm). Standard curves were prepared using 0.05-6300 nM naloxone (Sigma, St. Louis, Mo.). Competitive inhibition assays were performed as above using serial dilutions of the peptide mixtures. IC50 values were then calculated using the software […] (ISI, San Diego, Calif.).
In turn, Ac-YRTRYRYRRR-NH2 [SEQ ID NO. 1] returned an IC50 of 10 nM. Compound `CCCC[C@@H](N)C(=O)N[C@H](Cc1ccccc1)C(=O)N[C@H](CCCC)C(=O)N[C@H](CCCNC(=N)N)C(=O)O` [SEQ ID NO. 23, (D)Nle-(D)Phe-(D)Nle-(D)Arg] (H-[dNle][dF][dNle][dR]-OH) displayed an IC50 of 10 nM. `N=C(N)NCCC[C@@H](NC(=O)[C@H](Cc1c[nH]c2ccccc12)NC(=O)[C@@H](Cc1ccccc1)NC(=O)[C@H](N)Cc1ccccc1)C(=O)O` [SEQ ID NO. 14, (D)Phe-(D)Phe-Trp-(D)Arg] (H-[dF][dF]W[dR]-OH) came in with an IC50 of 4950 nM.

Turning to `CCCC[C@@H](N)C(=O)N[C@H](Cc1ccccc1)C(=O)N[C@@H](Cc1c[nH]c2ccccc12)C(=O)N[C@H](CC1CCCCC1)C(=O)O` [SEQ ID NO. 25, (D)Nle-(D)Phe-Trp-(D)ChAla] (H-[dNle][dF]W[dCha]-OH), the IC50 amounted to 42800 nM. For the compound `CCCC[C@@H](N)C(=O)N[C@H](Cc1ccccc1)C(=O)N[C@@H](C(=O)N[C@H](CC1CCCCC1)C(=O)O)[C@H](C)CC` [SEQ ID NO. 27, (D)Nle-(D)Phe-(D)Ile-(D)ChAla] (H-[dNle][dF][dI][dCha]-OH), the IC50 turned out to be 1450 nM. Ac-YRMRYRYRRR-NH2 [SEQ ID NO. 4] gave an IC50 of 36 nM.

The compound Ac-YRFRYRYRRR-NH2 [SEQ ID NO. 2] yielded an IC50 of 18 nM. Regarding Ac-RFFRYRYRRR-NH2 [SEQ ID NO. 3], the IC50 is 22 nM. In turn, `CC[C@@H](C)[C@@H](NC(=O)[C@@H](Cc1ccccc1)NC(=O)[C@H](N)Cc1ccccc1)C(=O)N[C@H](CC1CCCCC1)C(=O)O` [SEQ ID NO. 17, (D)Phe-(D)Phe-(D)Ile-(D)ChAla] (H-[dF][dF][dI][dCha]-OH) returned an IC50 of 169 nM. The compound `CC[C@@H](C)[C@@H](NC(=O)[C@@H](Cc1ccccc1)NC(=O)[C@H](N)Cc1ccccc1)C(=O)N[C@H](CCCNC(=N)N)C(=O)O` [SEQ ID NO. 16, (D)Phe-(D)Phe-(D)Ile-(D)Arg] returned an IC50 of 2 nM. Compound `CCCC[C@@H](NC(=O)[C@@H](Cc1ccccc1)NC(=O)[C@H](N)Cc1ccccc1)C(=O)N[C@H](CC1CCCCC1)C(=O)O` [SEQ ID NO. 13, (D)Phe-(D)Phe-(D)Nle-(D)ChAla] (H-[dF][dF][dNle][dCha]-OH) yielded an IC50 of 3 nM.

In turn, Ac-RRFRYRYRRR-NH2 [SEQ ID NO. 5] had an IC50 of 142 nM. `N[C@H](Cc1ccccc1)C(=O)N[C@H](Cc1ccccc1)C(=O)N[C@@H](Cc1c[nH]c2ccccc12)C(=O)N[C@H](CC1CCCCC1)C(=O)O` [SEQ ID NO. 15, (D)Phe-(D)Phe-Trp-(D)ChAla] (H-[dF][dF]W[dCha]-OH) displayed an IC50 of 52400 nM.

Regarding `CCCC[C@@H](N)C(=O)N[C@H](Cc1ccccc1)C(=O)N[C@@H](Cc1c[nH]c2ccccc12)C(=O)N[C@H](CCCNC(=N)N)C(=O)O` [SEQ ID NO. 24, (D)Nle-(D)Phe-Trp(D)Arg] (H-[dNle][dF]W[dR]-OH), the IC50 was found to be 11000 nM. Compound `CCCC[C@@H](N)C(=O)N[C@H](Cc1ccccc1)C(=O)N[C@@H](C(=O)N[C@H](CCCNC(=N)N)C(=O)O)[C@H](C)CC` [SEQ ID NO. 26, (D)Nle-(D)Phe-(D)Ile-(D)Arg] (H-[dNle][dF][dI][dR]-OH) displayed an IC50 of 16 nM.

By IC50 is commonly meant the concentration that gives 50% inhibition. A higher IC50 goes with lower potency.
